Where a name gives a salt, the structure may show the parent alone.

As usually defined, the Kd is the free concentration of one partner at which half of the binding sites on the other are occupied at equilibrium, for simple one-to-one binding. Higher therefore signals weaker binding.

In the assay the target is T1, Fibrinogen (FB) (Bos taurus, UniProt P02672+P02676+P12799).
T1 sequence (P02672 20-615): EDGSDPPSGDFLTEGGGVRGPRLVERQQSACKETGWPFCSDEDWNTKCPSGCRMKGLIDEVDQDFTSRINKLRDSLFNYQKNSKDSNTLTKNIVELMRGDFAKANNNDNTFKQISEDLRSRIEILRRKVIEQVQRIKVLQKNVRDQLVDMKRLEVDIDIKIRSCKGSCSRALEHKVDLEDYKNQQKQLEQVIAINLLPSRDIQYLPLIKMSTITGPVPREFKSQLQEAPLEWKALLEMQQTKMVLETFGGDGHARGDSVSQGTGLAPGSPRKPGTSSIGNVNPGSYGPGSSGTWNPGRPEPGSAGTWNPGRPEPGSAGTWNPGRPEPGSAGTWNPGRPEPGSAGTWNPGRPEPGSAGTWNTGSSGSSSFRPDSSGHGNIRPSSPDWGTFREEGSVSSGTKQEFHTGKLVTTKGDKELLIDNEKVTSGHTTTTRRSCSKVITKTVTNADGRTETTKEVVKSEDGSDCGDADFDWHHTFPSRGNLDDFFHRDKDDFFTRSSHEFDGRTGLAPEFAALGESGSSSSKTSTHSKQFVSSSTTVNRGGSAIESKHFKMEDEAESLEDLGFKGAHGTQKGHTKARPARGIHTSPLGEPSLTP
T1 sequence (P02676 1-468): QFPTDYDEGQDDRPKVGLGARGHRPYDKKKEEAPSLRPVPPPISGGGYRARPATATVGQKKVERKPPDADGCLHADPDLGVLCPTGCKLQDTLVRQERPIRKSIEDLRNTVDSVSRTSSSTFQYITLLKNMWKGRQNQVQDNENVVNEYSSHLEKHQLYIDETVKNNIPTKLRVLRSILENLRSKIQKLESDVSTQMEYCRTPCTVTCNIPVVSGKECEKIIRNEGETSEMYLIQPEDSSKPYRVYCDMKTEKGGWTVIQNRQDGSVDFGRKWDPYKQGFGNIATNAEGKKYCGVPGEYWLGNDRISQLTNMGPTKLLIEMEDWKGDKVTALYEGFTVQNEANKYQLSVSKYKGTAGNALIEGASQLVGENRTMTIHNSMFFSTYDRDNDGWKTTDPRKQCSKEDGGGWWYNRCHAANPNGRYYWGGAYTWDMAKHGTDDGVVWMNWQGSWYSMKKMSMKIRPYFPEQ
T1 sequence (P12799 25-444): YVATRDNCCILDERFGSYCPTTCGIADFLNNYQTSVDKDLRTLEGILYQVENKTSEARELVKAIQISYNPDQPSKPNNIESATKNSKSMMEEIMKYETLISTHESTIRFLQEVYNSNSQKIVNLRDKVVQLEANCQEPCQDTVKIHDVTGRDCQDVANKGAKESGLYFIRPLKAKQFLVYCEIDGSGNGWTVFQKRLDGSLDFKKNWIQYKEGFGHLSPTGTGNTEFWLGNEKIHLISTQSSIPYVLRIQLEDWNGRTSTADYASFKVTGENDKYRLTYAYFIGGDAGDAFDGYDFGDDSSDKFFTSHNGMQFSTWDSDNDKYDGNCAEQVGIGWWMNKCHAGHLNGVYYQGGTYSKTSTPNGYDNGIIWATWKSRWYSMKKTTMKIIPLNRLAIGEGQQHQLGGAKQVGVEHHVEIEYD
The experiment in a line: intrinsic fluorescence quenching titration. The format is binding.

Molecule `CC(C)(C)NC[C@H](O)COc1nsnc1N1CCOCC1` [TM, Timolol maleate] had a Kd of 1650 µM.
